The text below walks through data of ChEMBL document CHEMBL4396888, “Design and Synthesis of Potent, Selective Inhibitors of Protein Arginine Methyltransferase 4 against Acute Myeloid Leukemia” (J Med Chem, 2019).

For the first test, the target named is T1, Histone-arginine methyltransferase CARM1 (Homo sapiens, UniProt Q86X55).
T1 sequence (Q86X55 whole entry): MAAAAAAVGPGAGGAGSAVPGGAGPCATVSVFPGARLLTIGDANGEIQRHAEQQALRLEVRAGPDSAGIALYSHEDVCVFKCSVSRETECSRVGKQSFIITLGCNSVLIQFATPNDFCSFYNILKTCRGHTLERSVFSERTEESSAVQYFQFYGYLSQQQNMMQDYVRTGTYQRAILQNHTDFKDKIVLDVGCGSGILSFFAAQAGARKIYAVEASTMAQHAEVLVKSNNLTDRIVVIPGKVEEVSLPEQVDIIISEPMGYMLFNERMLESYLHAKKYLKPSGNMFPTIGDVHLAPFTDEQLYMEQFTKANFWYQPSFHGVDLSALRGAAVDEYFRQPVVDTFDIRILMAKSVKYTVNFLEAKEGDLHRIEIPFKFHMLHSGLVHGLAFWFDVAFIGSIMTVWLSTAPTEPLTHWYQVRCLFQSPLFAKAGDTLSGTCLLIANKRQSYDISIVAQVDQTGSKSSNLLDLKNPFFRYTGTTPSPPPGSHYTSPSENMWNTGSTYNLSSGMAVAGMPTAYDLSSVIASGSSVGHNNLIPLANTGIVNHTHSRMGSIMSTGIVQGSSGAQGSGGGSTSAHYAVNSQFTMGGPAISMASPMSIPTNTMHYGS
Briefly: Inhibition of PRMT4 (unknown origin) using histone H3 (21 to 44 residues) as substrate measured after 60 mins in presence of SAM by AlphaLisa assay.
For the compound `CNCC(O)CN1CCc2c(cccc2NC(=O)c2ccccc2)C1` (stereo unspecified), the IC50 came out at 6120 nM.

For `CNCCN1CCC(OCc2ccccc2)CC1`, the IC50 stood at 32 nM.

As to `CNCC(O)CN1CCc2c(cccc2Oc2ccccc2)C1` (stereo unspecified), the IC50 stood at 270 nM.

Take `CNCC(O)CN1CCc2c(cccc2OCc2ccc(F)cc2)C1` (stereo unspecified): the IC50 was 228 nM.

As to `CNCC(O)CN1CCc2c(cccc2NS(=O)(=O)c2ccccc2)C1` (stereo unspecified), the IC50 turned out to be 4260 nM.

On to `CNCC(O)CN1CCc2ccccc2CC1` (stereo unspecified), for which the IC50 was 8340 nM.

With `CNCC(O)CN1CCc2c(Br)cccc2C1` (stereo unspecified), the IC50 amounted to 130 nM.

Regarding `CNCC(O)CN1CCc2c(cccc2OCc2ccccc2)C1` (stereo unspecified), the IC50 turned out to be 165 nM.

Regarding `CNCC(O)CN1CCc2ccccc2C1` (stereo unspecified), the IC50 is 5310 nM.

With `CNCC(O)CN1CCCc2c(Br)cccc2C1` (stereo unspecified), the IC50 is 785 nM.

As for `CNCC(O)CN1CCc2c(cccc2OCc2ccc(-c3nccs3)cc2)C1` (racemic), the IC50 was determined as 31 nM.

Turning to `CNCC(O)CN1CCc2c(cccc2-c2ccccc2)C1` (stereo unspecified), the IC50 worked out at 465 nM.

For `CNCC(O)CN1CCc2c(cccc2Oc2cc(C)cc(C)c2)C1` (stereo unspecified), the IC50 came to 1990 nM.

Regarding `CNCC(O)CN1CCc2c(cccc2Oc2ccc(F)c(Cl)c2)C1` (stereo unspecified), the IC50 was 2050 nM.

On to `CNCC(O)CN1Cc2ccccc2C1` (stereo unspecified), for which the IC50 stood at 2460 nM.

For `CNCC(O)CN1CCc2c(cccc2Oc2ccccc2F)C1` (stereo unspecified), the IC50 came to 2070 nM.

Take `CNCC(O)CN1CCc2c(cccc2OCc2cccc(-c3nccs3)c2)C1` (racemic): the IC50 worked out at 43 nM.

Turning to `CNCC(O)CN1CCc2c(cccc2Oc2cccc(-c3nccs3)c2)C1` (stereo unspecified), the IC50 came out at 658 nM.

Take `CNCC(O)CN1CCc2cc(Oc3ccccc3)ccc2C1` (stereo unspecified): the IC50 stood at 900 nM.

Regarding `CNCC(O)CN1CCCc2ccccc2C1` (stereo unspecified), the IC50 came out at 3190 nM.

For the compound `CNCC(O)CN1CCc2c(cccc2C(=O)Nc2ccccc2)C1` (stereo unspecified), the concentration for half-maximal inhibition (IC50) worked out at 7980 nM.

In the case of `CNCC(O)CN1CCc2c(cccc2OCc2ccc(-c3ccccc3)cc2)C1` (stereo unspecified), the IC50 was 120 nM.

With `CNCC(O)CN1CCc2c(cccc2Oc2cccc(N)c2)C1` (stereo unspecified), the IC50 is 3490 nM.

As to `CNCC(O)CN1CCc2c(cccc2OCc2ccc(Cl)cc2)C1` (stereo unspecified), the IC50 was determined as 37 nM.

Turning to `CNCC(O)CN1CCc2c(cccc2Oc2ccc(-c3nccs3)cc2)C1` (stereo unspecified), the IC50 was found to be 279 nM.

Regarding `CNCC(O)CN1CCc2c(cccc2Oc2ccc(F)cc2)C1` (stereo unspecified), the IC50 was 2610 nM.

For `CNCC(O)CN1CCc2c(cccc2NCc2ccccc2)C1` (stereo unspecified), the IC50 is 343 nM.

`CNCC(O)CN1CCc2ccc(Br)cc2C1` (stereo unspecified): the IC50 stood at 5220 nM.

Regarding `CNCC(O)CN1CCc2cc(OCc3ccccc3)ccc2C1` (stereo unspecified), the IC50 came to 475 nM.

In the case of `CNCC(O)CN1CCc2cccc(Br)c2C1` (stereo unspecified), the IC50 is 772 nM.

In the case of `CNCC(O)CN1CCc2c(cccc2Oc2ccc(Cl)cc2)C1` (stereo unspecified), the IC50 was determined as 1180 nM.

`CNCC(O)CN1CCc2c(cccc2OCc2cccc(F)c2)C1` (stereo unspecified): the IC50 turned out to be 530 nM.

On to `CNCC(O)CN1CCc2c(cccc2OCc2ccccc2F)C1` (stereo unspecified), for which the IC50 is 254 nM.

Consider `CNCC(O)CN1CCc2c(cccc2Oc2cccc(F)c2)C1` (stereo unspecified), for which the IC50 amounted to 2310 nM.

Regarding `CNCC(O)CN1CCc2c(cccc2OCc2ccc(C#N)cc2)C1` (stereo unspecified), the IC50 amounted to 305 nM.

On to `CNCC(O)CN1CCc2c(cccc2C(=O)NCc2ccccc2)C1` (stereo unspecified), for which the IC50 worked out at 2130 nM.

Turning to `CNCC(O)CN1CCOc2ccccc2C1` (stereo unspecified), the IC50 was greater than 10000 nM.

In the case of `CNCC(O)CN1CCc2c(cccc2NC(=O)Nc2ccccc2)C1` (stereo unspecified), the IC50 is 3820 nM.

Take `CNCC(O)CN1CCc2cc(Br)ccc2C1` (stereo unspecified): the IC50 came to 4480 nM.

Regarding `CNC[C@H](O)CN1CCc2c(cccc2OCc2ccc(-c3nccs3)cc2)C1`, the IC50 was 101 nM.

Consider `CNCC(O)CN1CCc2c(cccc2Nc2ccccc2)C1` (stereo unspecified), for which the IC50 was 2110 nM.

`CNCC(O)CN1CCc2c(cccc2OCc2ccc(C(C)(C)C)cc2)C1` (stereo unspecified): the IC50 stood at 1950 nM.

As to `CNCC(O)CN1CCc2c(cccc2Oc2ccc(C#N)cc2)C1` (stereo unspecified), the IC50 was 2310 nM.

In the next test the target is Protein arginine N-methyltransferase 6 (Homo sapiens, UniProt Q96LA8). Briefly: Inhibition of PRMT6 (unknown origin) preincubated for 15 mins followed by substrate addition and measured after 60 mins by AlphaLisa assay.
Sequence of Protein arginine N-methyltransferase 6 (Q96LA8 whole entry): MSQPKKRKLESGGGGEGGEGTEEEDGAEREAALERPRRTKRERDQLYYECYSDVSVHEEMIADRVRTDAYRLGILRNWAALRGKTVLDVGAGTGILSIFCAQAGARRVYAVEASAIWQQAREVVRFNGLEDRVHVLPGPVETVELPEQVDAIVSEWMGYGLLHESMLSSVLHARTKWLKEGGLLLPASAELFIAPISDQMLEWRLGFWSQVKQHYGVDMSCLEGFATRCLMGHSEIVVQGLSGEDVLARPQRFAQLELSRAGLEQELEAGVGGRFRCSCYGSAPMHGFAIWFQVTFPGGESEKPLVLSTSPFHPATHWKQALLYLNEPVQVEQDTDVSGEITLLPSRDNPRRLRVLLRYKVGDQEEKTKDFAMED
On to `CNCC(O)CN1CCc2c(Br)cccc2C1` (stereo unspecified), for which the IC50 amounted to 41200 nM.

The target in another test is T1, Histone-arginine methyltransferase CARM1. Briefly: Inhibition of PRMT4 (unknown origin) using biotinylated […] (1 to 24 residues) as substrate in presence of [3H]SAM by scintillation proximity assay.
Regarding `CC(C)Oc1ccc(-c2c[nH]cc2CN(C)CCN)cc1`, the IC50 was in the range of 4 to 119 nM.

The target of another test is Protein arginine N-methyltransferase 8 (Homo sapiens, UniProt Q9NR22). Briefly: Inhibition of PRMT8 (unknown origin) using biotinylated histone H4 (1 to 24 residues) as substrate in presence of [3H]SAM by scintillation proximity assay.
Sequence of Protein arginine N-methyltransferase 8 (Q9NR22 whole entry, the tested form may be a part): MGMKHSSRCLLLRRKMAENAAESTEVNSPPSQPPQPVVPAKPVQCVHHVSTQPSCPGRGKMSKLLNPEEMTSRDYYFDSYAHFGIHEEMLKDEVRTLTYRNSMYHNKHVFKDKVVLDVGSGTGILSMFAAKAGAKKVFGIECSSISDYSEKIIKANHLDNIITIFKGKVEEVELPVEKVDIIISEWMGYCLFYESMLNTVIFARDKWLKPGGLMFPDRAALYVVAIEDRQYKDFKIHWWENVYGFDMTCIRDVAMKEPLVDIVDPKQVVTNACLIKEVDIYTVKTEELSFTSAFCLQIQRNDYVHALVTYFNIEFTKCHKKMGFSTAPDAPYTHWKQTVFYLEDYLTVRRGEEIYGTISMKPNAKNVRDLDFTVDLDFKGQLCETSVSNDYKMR
Take `CC(C)Oc1ccc(-c2c[nH]cc2CN(C)CCN)cc1`: the IC50 was 4 to 119 nM.
